# Data taken from ChEMBL document CHEMBL1201862, “PubChem BioAssay data set” (2004).
# Active and inactive are the calls of the source.
# Tests used:
# [1] = A549 cell cytotoxicity, dose response, cytotoxicity control, plate reader, cherry-pick, antagonist series (AID 743412); type: functional, cell-based
# [2] = MC4R antagonists, dose response, counter-screen for LGR2 antagonist project, cell-based, plate reader, cherry pick (AID 743444); type: functional;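 also: transfected HEK 293 cells stimulated with alpha-MSH peptide; potency of inhibitors of the alpha-MSH evoked signal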
# [3] = LGR2 antagonists, dose response, cell-based, HEK293, CRE-luciferase reporter, cherry pick, set 2 (AID 743343); type: functional;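 also: transfected cells were stimulated with diluted bursicon conditioned medium after compound addition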
# [4] = molecular target: T1, Microphthalmia-associated transcription factor (Homo sapiens, UniProt O75030); assay: TRPM1 promoter luciferase signal decrease, dose response, MITF inhibitor project, cell-based, SK-MEL-5, cherry-picked, set 3 (AID 493073); type: functional
# T1 sequence (O75030 whole entry): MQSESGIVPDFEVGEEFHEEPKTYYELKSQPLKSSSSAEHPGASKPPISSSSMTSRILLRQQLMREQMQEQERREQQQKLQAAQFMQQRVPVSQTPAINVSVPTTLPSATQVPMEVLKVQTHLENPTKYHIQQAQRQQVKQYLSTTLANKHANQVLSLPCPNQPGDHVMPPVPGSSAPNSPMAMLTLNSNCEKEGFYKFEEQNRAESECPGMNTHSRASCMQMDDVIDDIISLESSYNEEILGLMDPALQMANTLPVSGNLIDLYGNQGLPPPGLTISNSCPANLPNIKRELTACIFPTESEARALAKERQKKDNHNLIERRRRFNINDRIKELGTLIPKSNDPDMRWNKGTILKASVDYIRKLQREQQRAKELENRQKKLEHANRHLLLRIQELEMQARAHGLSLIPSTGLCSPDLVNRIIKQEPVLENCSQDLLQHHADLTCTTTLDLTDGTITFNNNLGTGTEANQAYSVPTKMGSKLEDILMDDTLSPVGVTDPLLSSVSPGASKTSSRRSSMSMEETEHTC
# [5] = HepG2 cell cytotoxicity, dose response, cytotoxicity control, plate reader, cherry-pick, antagonist series (AID 743416); type: functional, cell-based
# [6] = Fluorescence-based cell-based high throughput dose response assay for inhibitors of the interaction of nucleotide-binding oligomerization domain containing 2 (NOD2) and the receptor-interacting serine-threonine kinase 2 (RIPK2).; type: functional; conditions: Homo sapiens
# [7] = HEK293 cell cytotoxicity, dose response, cytotoxicity control, plate reader, cherry-picked samples (AID 743446); type: functional, cell-based
# [8] = molecular target: T2, Adenosylmethionine-8-amino-7-oxononanoate aminotransferase (Mycobacterium tuberculosis, UniProt P9WQ81); assay: Mycobacterium tuberculosis BioA enzyme inhibitor Measured in Biochemical System Using Plate Reader - 2163-02_Inhibitor_Dose_CherryPick_Activity.; type: functional, Mycobacterium tuberculosis UT205
# T2 sequence (P9WQ81 whole entry): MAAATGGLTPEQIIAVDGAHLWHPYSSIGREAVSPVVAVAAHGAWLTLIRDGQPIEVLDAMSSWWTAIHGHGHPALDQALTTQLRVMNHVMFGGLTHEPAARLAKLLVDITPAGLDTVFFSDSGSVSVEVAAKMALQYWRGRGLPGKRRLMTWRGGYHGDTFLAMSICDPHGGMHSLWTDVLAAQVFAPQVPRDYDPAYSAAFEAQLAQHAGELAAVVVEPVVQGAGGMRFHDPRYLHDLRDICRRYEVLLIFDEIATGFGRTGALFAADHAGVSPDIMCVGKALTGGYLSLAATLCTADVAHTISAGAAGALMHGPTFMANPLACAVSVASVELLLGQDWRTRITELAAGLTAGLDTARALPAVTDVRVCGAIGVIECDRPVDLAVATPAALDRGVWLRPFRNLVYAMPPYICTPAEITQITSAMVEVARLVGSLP
# [9] = molecular target: Glucose-6-phosphate 1-dehydrogenase (Homo sapiens, UniProt P11413); assay: human G6PD enzyme inhibitors, dose response, selectivity assay for P. falciparum G6PD inhibitor project, biochemical, fluorescence (AID 504792); type: functional
# Sequence of Glucose-6-phosphate 1-dehydrogenase (P11413 whole entry): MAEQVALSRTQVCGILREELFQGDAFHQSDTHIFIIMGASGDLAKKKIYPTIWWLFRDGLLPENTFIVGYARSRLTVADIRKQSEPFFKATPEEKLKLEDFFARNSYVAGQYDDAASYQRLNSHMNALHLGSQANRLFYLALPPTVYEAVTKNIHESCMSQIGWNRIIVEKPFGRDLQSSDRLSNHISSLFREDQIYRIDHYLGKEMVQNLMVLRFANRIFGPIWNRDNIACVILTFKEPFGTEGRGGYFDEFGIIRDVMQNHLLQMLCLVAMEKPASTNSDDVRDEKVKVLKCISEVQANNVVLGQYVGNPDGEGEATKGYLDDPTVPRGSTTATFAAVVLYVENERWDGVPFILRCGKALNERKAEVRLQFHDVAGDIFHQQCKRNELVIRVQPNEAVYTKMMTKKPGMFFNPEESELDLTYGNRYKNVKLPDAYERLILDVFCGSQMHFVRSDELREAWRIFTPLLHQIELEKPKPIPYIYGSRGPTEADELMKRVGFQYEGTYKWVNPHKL
# [10] = growth suppression of beta-catenin-knockout colon cells, dose response, cell-based, HCT116, human colon tumor (AID 1045); type: functional;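 also: HCT116 colon tumor cells with beta catenin knocked out; cells exposed to compound for 60 hours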
# [11] = growth suppression of PTEN-null colon cells, dose response, cell-based, HCT116 PTEN knockout (AID 1047); type: functional;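 also: HCT116 colon tumor cells with PTEN knocked out; cells exposed to compound for 60 hours before readout; potency for loss of cell viability measured by luminescence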
# INS1 = assay: beta cell apoptosis inhibitors, cytokine rescue, dose response, luminescence, retest (AID 449756); type: functional, cell-based; conditions: Rattus norvegicus;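 also: cell death triggered by IL-1 beta plus TNF-alpha plus IFN-gamma mixture; protective hits raise ATP signal compared with cytokine alone wells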
# [12] = intracellular Trypanosoma cruzi inhibitors in host cells – cell-based, plate reader, cherry-pick samples, set 3, dose response (AID 651818); type: functional;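 also: compounds incubated with infected cells for about four days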
# [13] = molecular target: Ras and Rab interactor 1/Tyrosine-protein kinase ABL1 (Homo sapiens, UniProt P00519+Q13671); type: functional;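 also: biochemical TR-FRET dose-response test measuring inhibition of binding between Rin1 and Abl proteins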
# Sequence of Ras and Rab interactor 1/Tyrosine-protein kinase ABL1 (P00519 whole entry): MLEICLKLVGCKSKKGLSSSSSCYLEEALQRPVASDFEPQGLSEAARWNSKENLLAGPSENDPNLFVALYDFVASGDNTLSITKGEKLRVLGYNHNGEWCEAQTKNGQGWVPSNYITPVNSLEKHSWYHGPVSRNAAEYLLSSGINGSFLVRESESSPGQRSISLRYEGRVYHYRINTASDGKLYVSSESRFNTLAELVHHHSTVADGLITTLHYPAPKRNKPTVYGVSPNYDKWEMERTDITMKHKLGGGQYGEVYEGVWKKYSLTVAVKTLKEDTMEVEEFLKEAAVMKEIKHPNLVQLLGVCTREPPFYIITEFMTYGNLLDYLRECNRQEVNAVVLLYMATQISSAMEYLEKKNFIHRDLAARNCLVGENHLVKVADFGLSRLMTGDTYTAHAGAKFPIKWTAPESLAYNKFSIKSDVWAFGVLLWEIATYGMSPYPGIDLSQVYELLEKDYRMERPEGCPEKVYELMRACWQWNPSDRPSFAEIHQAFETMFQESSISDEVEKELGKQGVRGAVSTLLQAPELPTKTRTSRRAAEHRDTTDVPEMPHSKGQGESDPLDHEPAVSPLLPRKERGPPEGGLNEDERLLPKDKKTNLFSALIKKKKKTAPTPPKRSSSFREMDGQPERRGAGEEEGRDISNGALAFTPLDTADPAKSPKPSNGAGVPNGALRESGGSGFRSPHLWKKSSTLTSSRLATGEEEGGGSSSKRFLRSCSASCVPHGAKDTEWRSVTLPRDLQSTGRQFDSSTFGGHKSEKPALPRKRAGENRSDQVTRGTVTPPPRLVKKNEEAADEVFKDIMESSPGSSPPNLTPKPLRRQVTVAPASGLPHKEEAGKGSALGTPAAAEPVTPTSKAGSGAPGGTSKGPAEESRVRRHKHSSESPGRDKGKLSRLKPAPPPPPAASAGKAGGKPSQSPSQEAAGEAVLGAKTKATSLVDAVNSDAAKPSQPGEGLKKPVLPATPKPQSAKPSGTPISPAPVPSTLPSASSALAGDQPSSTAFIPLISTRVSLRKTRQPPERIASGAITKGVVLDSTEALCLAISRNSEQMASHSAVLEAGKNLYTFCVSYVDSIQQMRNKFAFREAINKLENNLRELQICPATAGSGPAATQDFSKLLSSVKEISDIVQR
# Sequence of Ras and Rab interactor 1/Tyrosine-protein kinase ABL1 (Q13671 whole entry): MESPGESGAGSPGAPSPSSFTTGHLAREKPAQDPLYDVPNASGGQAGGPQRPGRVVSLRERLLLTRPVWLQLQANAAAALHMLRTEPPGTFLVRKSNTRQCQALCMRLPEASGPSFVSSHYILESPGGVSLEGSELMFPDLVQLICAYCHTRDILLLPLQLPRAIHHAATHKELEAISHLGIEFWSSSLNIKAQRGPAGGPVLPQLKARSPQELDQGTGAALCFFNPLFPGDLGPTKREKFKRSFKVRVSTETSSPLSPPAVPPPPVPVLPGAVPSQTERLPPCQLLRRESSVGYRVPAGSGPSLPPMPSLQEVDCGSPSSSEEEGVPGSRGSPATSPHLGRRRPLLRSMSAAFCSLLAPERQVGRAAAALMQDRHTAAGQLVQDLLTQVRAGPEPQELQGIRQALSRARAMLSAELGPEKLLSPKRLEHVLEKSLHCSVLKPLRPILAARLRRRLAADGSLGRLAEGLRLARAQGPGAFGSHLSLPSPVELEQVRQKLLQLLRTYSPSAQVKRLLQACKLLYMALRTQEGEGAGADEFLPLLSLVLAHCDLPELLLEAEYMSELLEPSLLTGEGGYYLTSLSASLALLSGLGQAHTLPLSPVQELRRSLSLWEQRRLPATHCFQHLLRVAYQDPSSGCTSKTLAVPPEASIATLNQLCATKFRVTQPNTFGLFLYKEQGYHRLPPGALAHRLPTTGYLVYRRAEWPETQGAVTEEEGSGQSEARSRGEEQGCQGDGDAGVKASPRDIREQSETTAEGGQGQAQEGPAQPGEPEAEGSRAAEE
# [14] = molecular target: Luciferin 4-monooxygenase (Photinus pyralis, UniProt P08659); assay: firefly luciferase enzyme inhibitors, dose response, biochemical, luminescence (AID 1891)
# Sequence of Luciferin 4-monooxygenase (P08659 whole entry): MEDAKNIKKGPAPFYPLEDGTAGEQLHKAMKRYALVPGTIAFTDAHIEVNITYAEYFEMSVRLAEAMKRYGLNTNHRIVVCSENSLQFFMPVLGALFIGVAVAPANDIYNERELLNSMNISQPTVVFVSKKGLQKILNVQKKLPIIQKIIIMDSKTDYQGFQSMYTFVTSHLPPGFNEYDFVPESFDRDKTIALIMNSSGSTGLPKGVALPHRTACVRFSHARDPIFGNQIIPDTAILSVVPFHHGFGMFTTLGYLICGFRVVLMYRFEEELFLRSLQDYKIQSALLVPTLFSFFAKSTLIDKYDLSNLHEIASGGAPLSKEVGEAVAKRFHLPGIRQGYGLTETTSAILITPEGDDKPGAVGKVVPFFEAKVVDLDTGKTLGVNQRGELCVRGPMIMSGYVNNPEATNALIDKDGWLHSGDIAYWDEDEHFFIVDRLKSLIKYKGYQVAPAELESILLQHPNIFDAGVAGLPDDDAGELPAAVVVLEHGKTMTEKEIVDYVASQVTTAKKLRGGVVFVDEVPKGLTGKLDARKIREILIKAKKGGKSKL
# Cytochrome P450 3A4 = Cytochrome P450 3A4 (Homo sapiens, UniProt P08684);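 also: CYP3A4 tested as one member of a cytochrome P450 panel screen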
# Sequence of Cytochrome P450 3A4 (P08684 whole entry): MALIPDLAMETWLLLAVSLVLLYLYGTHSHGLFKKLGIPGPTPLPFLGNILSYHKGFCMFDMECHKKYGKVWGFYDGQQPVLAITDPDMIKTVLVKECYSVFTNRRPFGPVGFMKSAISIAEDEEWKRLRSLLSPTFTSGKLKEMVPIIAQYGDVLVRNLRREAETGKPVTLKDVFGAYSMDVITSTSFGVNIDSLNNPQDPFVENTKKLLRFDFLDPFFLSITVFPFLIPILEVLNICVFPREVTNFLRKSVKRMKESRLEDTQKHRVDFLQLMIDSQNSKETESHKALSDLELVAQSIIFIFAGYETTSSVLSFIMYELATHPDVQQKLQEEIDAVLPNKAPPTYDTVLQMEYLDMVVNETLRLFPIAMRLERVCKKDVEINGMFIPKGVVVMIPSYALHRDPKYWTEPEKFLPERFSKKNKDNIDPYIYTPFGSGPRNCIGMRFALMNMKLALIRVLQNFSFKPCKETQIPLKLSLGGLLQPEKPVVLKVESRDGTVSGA
# Cytochrome P450 1A2 = molecular target: T3, Cytochrome P450 1A2 (Homo sapiens, UniProt P05177);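 also: PubChem cytochrome P450 panel assay, CYP1A2 panel member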
# T3 sequence (P05177 whole entry): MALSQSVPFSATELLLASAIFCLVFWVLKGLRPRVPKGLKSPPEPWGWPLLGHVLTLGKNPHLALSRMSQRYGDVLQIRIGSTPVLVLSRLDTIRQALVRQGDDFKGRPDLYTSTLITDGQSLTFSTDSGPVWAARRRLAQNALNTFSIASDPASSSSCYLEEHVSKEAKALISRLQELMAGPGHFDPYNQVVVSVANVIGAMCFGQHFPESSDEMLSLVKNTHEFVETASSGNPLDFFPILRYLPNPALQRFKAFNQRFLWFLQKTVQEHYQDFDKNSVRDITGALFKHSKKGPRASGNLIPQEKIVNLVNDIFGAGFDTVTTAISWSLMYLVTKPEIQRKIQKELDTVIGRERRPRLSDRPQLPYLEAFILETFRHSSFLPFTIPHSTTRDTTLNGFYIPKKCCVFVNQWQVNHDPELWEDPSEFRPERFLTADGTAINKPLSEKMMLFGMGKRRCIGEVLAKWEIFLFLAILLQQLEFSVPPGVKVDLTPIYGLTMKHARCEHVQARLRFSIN
# [15] = Luminescence Cell-Based Dose Confirmation HTS to Identify Inhibitors of Platelet Dense Granule Release. [Related pubchem assays: 1663 (Primary HTS), 1678 (Summary of Project)]; type: functional
# Cytochrome P450 2C19 = Cytochrome P450 2C19 (Homo sapiens, UniProt P33261); assay: Cytochrome panel assay with activity outcomes. Panel member name: p450-cyp2c19 Compounds with AC50 equal or less than 10 uM are considered active; type: functional; conditions: read-out: AC50
# Sequence of Cytochrome P450 2C19 (P33261 whole entry, the tested form may be a part): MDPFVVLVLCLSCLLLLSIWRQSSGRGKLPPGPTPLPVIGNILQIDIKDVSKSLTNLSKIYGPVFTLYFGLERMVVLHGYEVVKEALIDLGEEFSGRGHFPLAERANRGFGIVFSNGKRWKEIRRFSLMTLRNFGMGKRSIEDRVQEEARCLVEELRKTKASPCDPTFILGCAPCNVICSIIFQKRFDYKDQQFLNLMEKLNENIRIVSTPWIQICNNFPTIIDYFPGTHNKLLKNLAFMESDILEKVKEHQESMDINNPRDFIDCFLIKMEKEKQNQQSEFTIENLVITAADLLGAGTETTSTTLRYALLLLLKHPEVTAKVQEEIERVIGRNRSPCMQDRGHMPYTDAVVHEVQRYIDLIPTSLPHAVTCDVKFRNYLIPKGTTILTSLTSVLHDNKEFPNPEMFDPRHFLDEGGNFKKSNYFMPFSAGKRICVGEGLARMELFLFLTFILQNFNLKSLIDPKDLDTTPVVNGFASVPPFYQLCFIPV
# [16] = molecular target: Photoreceptor-specific nuclear receptor (Homo sapiens, UniProt Q9Y5X4); type: functional, cell-based;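 also: CHO-S cells with Gal4-NCOR and VP16-NR2E3 two-hybrid luciferase reporter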
# Sequence of Photoreceptor-specific nuclear receptor (Q9Y5X4 whole entry, the tested form may be a part): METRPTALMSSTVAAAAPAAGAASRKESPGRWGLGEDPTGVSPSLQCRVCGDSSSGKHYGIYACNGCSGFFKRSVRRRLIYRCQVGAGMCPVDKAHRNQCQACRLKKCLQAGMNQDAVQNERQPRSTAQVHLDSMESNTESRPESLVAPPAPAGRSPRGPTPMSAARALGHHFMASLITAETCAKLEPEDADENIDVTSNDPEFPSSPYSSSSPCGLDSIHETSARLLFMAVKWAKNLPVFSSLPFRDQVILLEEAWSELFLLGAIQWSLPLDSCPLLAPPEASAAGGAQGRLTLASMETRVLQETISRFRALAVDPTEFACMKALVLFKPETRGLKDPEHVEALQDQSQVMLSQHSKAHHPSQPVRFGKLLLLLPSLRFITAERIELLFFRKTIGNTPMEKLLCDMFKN
# [17] = Luminescence Cell-Based Dose Retest to Confirm Inhibitors of Cancer Stem Cells. [Related pubchem assays (depositor defined):AID2717, AID2721]; type: functional; conditions: Homo sapiens
compound,measurement,setting,value
Cc1cc(Br)ccc1NC(=O)CNC(=O)Cn1ncc(Cl)c(Cl)c1=O,AC50,[1],3.92 µM (active)
same,AC50,[2],5.41 µM (active)
same,AC50,[3],4.51 µM (active)
same,AC50,[4],7.47 µM (active)
same,AC50,[5],> 52 µM (inactive)
same,IC50,[6],1.84 µM (active)
same,AC50,[7],4.54 µM (active)
CCC(CO)N1C(C)=CC(=Cc2sc3ccccc3[n+]2Cc2ccccc2)C=C1C (stereo not drawn),AC50,[8],2.73 µM (active)
same,IC50,[9],> 80 µM (inactive)
same,EC50,[10],0.775 µM (active)
same,EC50,[11],1.19 µM (active)
same,AC50,INS1,0.613 µM (active)
C[C@@H]1CN([C@@H](C)CO)C(=O)c2cccc(NC(=O)CCCCCC(=O)Nc3ccccc3N)c2O[C@H]1CN(C)CC1CCCCC1,AC50,[12],3.58 µM (active)
CCOC(=O)N1CCC(NC(=O)CCc2nc(C3=CCN(C)CC3)no2)CC1,IC50,[13],5.11 µM (active)
same,EC50,[14],> 112 µM (not active)
same,AC50,Cytochrome P450 3A4,25.1 µM (inconclusive)
same,AC50,Cytochrome P450 1A2,1 µM (inconclusive)
same,EC50,[15],> 112 µM (not active)
same,AC50,Cytochrome P450 2C19,11.2 µM (inconclusive)
N#Cc1c(-c2ccccc2)cc(-c2ccccc2)nc1SCCC(=O)O,IC50,[16],12.7 µM (inactive)
same,AC50,[17],1.6 µM (active)
COC(=O)C1CCN(C(c2ccc(OC)c(OC)c2)c2sc3nc(C)nn3c2O)CC1 (stereo not drawn),AC50,[8],17.4 µM (active)
O=C(NC1CCCc2c1cnn2-c1cc(F)cc(F)c1)c1ccc[n+]([O-])c1 (stereo not drawn),AC50,[8],4.29 µM (active)
